Experimental data reported in article PMC9311539, “Antibacterial Activity against Clinical Isolates and In Vivo Efficacy of Coralmycins” (Antibiotics, 2022).
Values after ≈ are worked out from the molar mass of the structure shown. “Also recorded” adds a separate entry of the source. Where two headings read alike, the source gives them in different places.

Columns and labels:
MRSA = assay: MIC, broth microdilution, clinical isolates: MRSA; format: cell-based, Staphylococcus aureus
Procedure: (§1) To assess the MICs for antibiotic susceptibility, Gram-positive bacteria isolated from human clinical specimens were obtained from several general hospitals in Seoul, Korea, during 2002–2018. Staphylococcus aureus Giorgio and Streptococcus pneumoniae ATCC49619 were used to test in vivo efficacies against […], in mice.
(§2) The MICs of the antimicrobial agents were determined by a twofold microdilution broth method, as described by the Clinical and Laboratory Standards Institute. Briefly, test organisms were grown on Mueller–Hinton agar (MHA, BD Difco, Sparks, MD, USA) plates, subcultured into cation-adjusted Mueller–Hinton broth (CAMHB, BD Difco, Sparks, MD, USA), and incubated for 18 h at 35 °C. For S. pneumoniae culture, 5% sheep blood (Hanil Comed, Seongnam, Korea) was added. The cultured bacteria were diluted using phosphate-buffered saline (PBS) to achieve a bacterial cell density of approximately 5 × 10^6 CFU/mL. All test organisms were loaded into 96-well plates containing serial dilutions of the antimicrobial agents to achieve a concentration of 5 × 10^4 CFU/well. The plates were incubated at 35 °C for 18–20 h and examined for bacterial growth.

S. pneumoniae ATCC49619 [1] = assay: Time-kill assay, S. pneumoniae ATCC49619; format: cell-based, Streptococcus pneumoniae
Procedure: (§3) Time-kill analysis was performed by the NCCLS M26-A method. The test organisms (S. aureus Giorgio, S. pneumoniae ATCC49619, MRSA CCARM 3167, and VRE 3) incubated in CAMHB for 18 h at 35 °C were diluted to 10^5 CFU/mL with fresh CAMHB, and the diluted cultures were preincubated for 2 h. For S. pneumoniae culture, 5% sheep blood (Hanil Comed, Seongnam, Korea) was added. […] Culture aliquots (0.1 mL) were removed after 0, 2, 4, 6 and 24 h of incubation, and serial 10-fold dilutions were prepared in saline as needed. The numbers of viable cells were determined on drug-free MHA plates after 20 h of incubation. A compound was considered bactericidal if the original inoculum was reduced by 3 log CFU/mL (99.9%) at each concentration or was considered bacteriostatic if the inoculum was reduced by 0–3 log CFU/mL.

S. pneumoniae ATCC49619 [2] = assay: MIC against S. pneumoniae ATCC49619; format: cell-based; details: Streptococcus pneumoniae, ATCC 25922 / ATCC 49619, printed as S. pneumoniae ATCC 25922; read-out: MIC
Procedure: as §2

[3] = tested on: Vancomycin-sensitive E. faecalis; assay: MIC, broth microdilution, clinical isolates: vancomycin-sensitive E. faecalis; format: cell-based, Enterococcus faecalis
Procedure: as §1, §2

VRE = assay: MIC, broth microdilution, clinical isolates: VRE; format: cell-based, vancomycin-resistant Enterococcus
Procedure: as §1, §2

S. aureus Giorgio [4] = assay: Neutropenic mouse thigh infection model; format: in vivo, female ICR mice
Procedure: (§4) For the respiratory tract infection model, neutropenic mice were anesthetized and intranasally inoculated with a 50 μL suspension of S. pneumoniae ATCC49619 (4.4 × 10^8 CFU/mL). For the thigh infection model, the neutropenic mice were administered an intramuscular injection of a 100 μL suspension of S. aureus Giorgio (1 × 10^6 CFU/mL) into both thighs. For both models, four mice were included in each group. At 2 h after infection, two mice were sacrificed, and the infected thighs or lungs (n = 4) were excised to determine the initial bacterial levels. […] At 24 h after infection, the mice were sacrificed by cervical dislocation; their thighs or lungs were removed, homogenized, serially diluted with saline, and plated onto MHA to count the number of bacteria remaining. The number of viable bacterial cells (CFU) in the thighs or lungs of vehicle- and drug-treated mice was determined.

MSSA = assay: MIC, broth microdilution, clinical isolates: MSSA; format: cell-based; details: Staphylococcus aureus, 26 clinical isolates
Procedure: as §1, §2

S. aureus Giorgio [5] = assay: MIC against S. aureus Giorgio; format: cell-based, Staphylococcus aureus
Procedure: as §2

MRSA CCARM 3167 [6] = assay: Time-kill assay, MRSA CCARM 3167; format: cell-based, Staphylococcus aureus
Procedure: as §3

[7] = tested on: CNS (coagulase-negative staphylococci); assay: MIC, broth microdilution, clinical isolates: CNS; format: cell-based
Procedure: as §1, §2

S. pneumoniae ATCC49619 [8] = assay: Neutropenic mouse respiratory tract infection model; format: in vivo, female ICR mice
Procedure: as §4

VRE 3 [9] = assay: MIC against VRE 3; format: cell-based, vancomycin-resistant Enterococcus; details: Enterococcus, read-out: MIC
Procedure: as §2

S. pneumoniae = assay: MIC, broth microdilution, clinical isolates: S. pneumoniae; format: cell-based, Streptococcus pneumoniae
Procedure: as §1, §2

MRSA CCARM 3167 [10] = assay: MIC against MRSA CCARM 3167; format: cell-based; details: Staphylococcus aureus; read-out: MIC
Procedure: as §2

VRE 3 [11] = assay: Time-kill assay, VRE 3; format: cell-based, vancomycin-resistant Enterococcus
Procedure: as §3

S. aureus Giorgio [12] = assay: Time-kill assay, S. aureus Giorgio; format: cell-based, Staphylococcus aureus
Procedure: as §3

[13] = tested on: Vancomycin-sensitive E. faecium; assay: MIC, broth microdilution, clinical isolates: vancomycin-sensitive E. faecium; format: cell-based, Enterococcus faecium
Procedure: as §1, §2

[14] = second trial, s.c. 100 mg/kg bid

## CO[C@@H](C(N)=O)[C@H](NC(=O)c1ccc(NC(=O)c2ccc([N+](=O)[O-])cc2)cc1)C(=O)Nc1ccc(C(=O)Nc2ccc(C(=O)Nc3ccc(C(=O)O)c(O)c3OC(C)C)c(O)c2OC(C)C)cc1 [Coralmycin A, coralmycin A]
MRSA; 42 clinical isolates
  MIC90: 1 µg/mL (≈ 1.07 µM)
MRSA; Staphylococcus aureus, MRSA, 42 clinical isolates, read-out: MIC50
  MIC50: 1 µg/mL (≈ 1.07 µM)
MRSA; Staphylococcus aureus, 42 MRSA isolates, read-out: MIC90
  MIC90: 1 µg/mL (≈ 1.07 µM)
S. pneumoniae ATCC49619 [1]; 0.5× MIC (Figure S4)
  time-kill activity: bacteriostatic (considered bacteriostatic if the inoculum was reduced by 0–3 log CFU/mL)
S. pneumoniae ATCC49619 [1]; 1× MIC
  time-kill activity: bactericidal (considered bactericidal if the original inoculum was reduced by 3 log CFU/mL (99.9%) at each concentration)
S. pneumoniae ATCC49619 [1]; 2× and 4× MIC, 24 h
  time-kill activity: bactericidal (considered bactericidal if the original inoculum was reduced by 3 log CFU/mL (99.9%) at each concentration)
S. pneumoniae ATCC49619 [2]
  MIC: 10 µg/mL (≈ 10.7 µM)
[3]; 32 clinical isolates
  MIC90: 2 µg/mL (≈ 2.14 µM)
[3]; Enterococcus faecalis, 32 clinical isolates, read-out: MIC50
  MIC50: 1 µg/mL (≈ 1.07 µM)
[3]; vancomycin-sensitive Enterococcus faecalis, read-out: MIC90
  MIC90: 2 µg/mL (≈ 2.14 µM)
VRE; 46 clinical isolates
  MIC90: 1 µg/mL (≈ 1.07 µM)
VRE; Enterococcus, VRE, 46 clinical isolates, read-out: MIC50
  MIC50: 0.5 µg/mL (≈ 0.534 µM)
VRE; Enterococcus, 46 VRE isolates, read-out: MIC90
  MIC90: 1 µg/mL (≈ 1.07 µM)
S. aureus Giorgio [4]; 20 mg/kg bid
  antibacterial effect in thigh infection model: almost no antibacterial effect
S. aureus Giorgio [4]; s.c. 4 and 20 mg/kg at 3 and 6 h after infection
  antibacterial effect in thigh infection model: almost no antibacterial effect
MSSA; read-out: MIC50
  MIC50: 0.5 µg/mL (≈ 0.534 µM)
MSSA; read-out: MIC90
  MIC90: 1 µg/mL (≈ 1.07 µM)
S. aureus Giorgio [5]
  MIC: 0.003 µg/mL (≈ 0.00321 µM)
S. aureus Giorgio [5]; Staphylococcus aureus, read-out: MIC
  MIC: 0.006 µg/mL (≈ 0.00641 µM)
MRSA CCARM 3167 [6]; 1× MIC
  time-kill activity: bactericidal (considered bactericidal if the original inoculum was reduced by 3 log CFU/mL (99.9%) at each concentration)
MRSA CCARM 3167 [6]; 2× and 4× MIC, 24 h
  time-kill activity: bactericidal (considered bactericidal if the original inoculum was reduced by 3 log CFU/mL (99.9%) at each concentration)
[7]; 31 clinical isolates
  MIC90: 1 µg/mL (≈ 1.07 µM)
[7]; 31 clinical isolates, read-out: MIC50
  MIC50: 0.25 µg/mL (≈ 0.267 µM)
[7]; 31 coagulase-negative staphylococci isolates, read-out: MIC90
  MIC90: 1 µg/mL (≈ 1.07 µM)
S. pneumoniae ATCC49619 [8]; 4 mg/kg bid s.c.
  in vivo effect (bacteriostatic or bactericidal): bacteriostatic effects; also recorded: static effect
S. pneumoniae ATCC49619 [8]; 20 mg/kg bid s.c.
  in vivo effect (bacteriostatic or bactericidal): bacteriostatic effects; also recorded: static effect
S. pneumoniae ATCC49619 [8]; 100 mg/kg bid s.c.
  in vivo effect (bacteriostatic or bactericidal): significant bactericidal effects
S. pneumoniae ATCC49619 [8]; first experiment, s.c. 4 mg/kg bid
  reduction of bacterial burden in the lungs compared to the 24-h control group: 1.43 log10 CFU
S. pneumoniae ATCC49619 [8]; first experiment, s.c. 20 mg/kg bid
  reduction of bacterial burden in the lungs compared to the 24-h control group: 1.81 log10 CFU
S. pneumoniae ATCC49619 [8]; first experiment, s.c. 4 and 20 mg/kg at 3 and 6 h after infection
  antibacterial effect in respiratory tract infection model: significant antibacterial effects
S. pneumoniae ATCC49619 [8]; second trial, s.c. 4 mg/kg bid
  reduction of bacterial burden in the lungs compared to the 24-h control group: 1.45 log10 CFU
S. pneumoniae ATCC49619 [8]; second trial, s.c. 20 mg/kg bid
  reduction of bacterial burden in the lungs compared to the 24-h control group: 1.88 log10 CFU
S. pneumoniae ATCC49619 [8]; [14]
  reduction of bacterial burden in the lungs compared to the 24-h control group: 3.02 log10 CFU
  reduction of the starting bacterial burden compared to the 2-h control group: 1.34 log10 CFU/lung
VRE 3 [9]
  MIC: 0.5 µg/mL (≈ 0.534 µM)
S. pneumoniae; 27 clinical isolates
  MIC90: 1 µg/mL (≈ 1.07 µM)
S. pneumoniae; Streptococcus pneumoniae, 27 S. pneumoniae isolates, read-out: MIC90
  MIC90: 1 µg/mL (≈ 1.07 µM)
S. pneumoniae; Streptococcus pneumoniae, 27 clinical isolates, read-out: MIC50
  MIC50: 0.25 µg/mL (≈ 0.267 µM)
MRSA CCARM 3167 [10]
  MIC: 0.01 µg/mL (≈ 0.0107 µM)
VRE 3 [11]; 1× MIC
  time-kill activity: bactericidal (considered bactericidal if the original inoculum was reduced by 3 log CFU/mL (99.9%) at each concentration)
VRE 3 [11]; 2× and 4× MIC, 24 h
  time-kill activity: bactericidal (considered bactericidal if the original inoculum was reduced by 3 log CFU/mL (99.9%) at each concentration)
S. aureus Giorgio [12]; 0.5× MIC (Figure S4)
  time-kill activity: bacteriostatic (considered bacteriostatic if the inoculum was reduced by 0–3 log CFU/mL)
S. aureus Giorgio [12]; 1× MIC
  time-kill activity: bactericidal (considered bactericidal if the original inoculum was reduced by 3 log CFU/mL (99.9%) at each concentration)
S. aureus Giorgio [12]; 2× and 4× MIC, 24 h
  time-kill activity: bactericidal (considered bactericidal if the original inoculum was reduced by 3 log CFU/mL (99.9%) at each concentration)
[13]; 32 clinical isolates
  MIC90: 0.5 µg/mL (≈ 0.534 µM)
[13]; Enterococcus faecium, 32 clinical isolates, read-out: MIC50
  MIC50: 0.25 µg/mL (≈ 0.267 µM)
[13]; vancomycin-sensitive Enterococcus faecium, read-out: MIC90
  MIC90: 0.5 µg/mL (≈ 0.534 µM)
